Assays:
Assay type in all cases: in vivo
[1] = test system: Echinochloa crus-galli var. crus-galli; experiment: Test Example 3: herbicidal effect by foliage application, Wagner pot (symbol H); conditions: application herbicide amount 320 g/ha
Method in brief: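 Foliar spray of a water-diluted emulsion at a predetermined herbicide amount, applied to 14-day-old plants. Seedlings were raised in flooded alluvial soil (0.1–0.5 cm water) at 25–30 °C in a greenhouse. Injury was rated after 3 weeks against fixed criteria.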

[2] = test system: directly sowed rice plant; experiment: Test Example 3: effect on crop by foliage application, Wagner pot (symbol b); conditions: application herbicide amount 320 g/ha
Method in brief: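 Wagner pot (1/10000 are), alluvial soil, submerged 0.1–0.5 cm; sown E. crus-galli var. crus-galli, L. chinensis, C. difformis, rice; greenhouse 25–30 °C.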

Setaria viridis = experiment: Test Example 4: herbicidal effect by soil treatment (symbol G); conditions: application herbicide amount 320 g/ha
Method in brief: (§1)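 Seeds were sown in sterilized diluvial soil, covered with about 1.5 cm of soil, and the soil surface was sprayed with a water-diluted emulsion of the compound at a predetermined rate. Plants grew in a greenhouse at 25° C. to 30° C.; effects were scored visually 3 weeks after application.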

Apera spica-venti [3] = experiment: Test Example 4: herbicidal effect by soil treatment (symbol L); conditions: application herbicide amount 320 g/ha
Method in brief: as §1

soybean = experiment: Test Example 4: effect on crop by soil treatment (symbol d); conditions: application herbicide amount 320 g/ha
Method in brief: (§2)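 Plants are raised in a greenhouse (25° C. to 30° C.) from spot-sown seed, which sits under about 1.5 cm of sterilized diluvial soil in a box shared with weed species.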

wheat = experiment: Test Example 4: effect on crop by soil treatment (symbol e); conditions: application herbicide amount 320 g/ha
Method in brief: as §2

rapeseed = experiment: Test Example 4: effect on crop by soil treatment (symbol g); conditions: application herbicide amount 320 g/ha
Method in brief: as §2

Digitaria ciliaris = experiment: Test Example 5: herbicidal effect by foliage application, plastic box (symbol F); conditions: 320 g/ha, 3 weeks after application
Method in brief: (§3)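 Post-emergence spray; diluvial soil (sterilized), ~1.5 cm seed cover; greenhouse 25–30° C; 14-day-old plants; water-diluted emulsion at predetermined dose; visual score at 3 wk post-treatment.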

Avena fatua = experiment: Test Example 5: herbicidal effect by foliage application, plastic box (symbol I); conditions: 320 g/ha, 3 weeks after application
Method in brief: as §3

Alopecurus myosuroides = experiment: Test Example 5: herbicidal effect by foliage application, plastic box (symbol J); conditions: 320 g/ha, 3 weeks after application
Method in brief: as §3

Lolium multiflorum Lam. = experiment: Test Example 5: herbicidal effect by foliage application, plastic box (symbol K); conditions: 320 g/ha, 3 weeks after application
Method in brief: as §3

Apera spica-venti [4] = experiment: Test Example 5: herbicidal effect by foliage application, plastic box (symbol L); conditions: 320 g/ha, 3 weeks after application
Method in brief: as §3

Chenopodium album = experiment: Test Example 5: herbicidal effect by foliage application, plastic box (symbol O); conditions: 320 g/ha, 3 weeks after application
Method in brief: as §3

corn = experiment: Test Example 5: effect on crop by foliage application, plastic box (symbol c); conditions: 320 g/ha, 3 weeks after application
Method in brief: (§4)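 Greenhouse test at 25° C. to 30° C. Seeds of crops and weeds were spot-sown in boxes of sterilized diluvial soil under roughly 1.5 cm soil cover, then grown for foliage treatment.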

rice plant = experiment: Test Example 5: effect on crop by foliage application, plastic box (symbol b); conditions: 320 g/ha, 3 weeks after application
Method in brief: as §4

Stellaria media = experiment: Test Example 5: herbicidal effect by foliage application, plastic box (symbol P); conditions: 320 g/ha, 3 weeks after application
Method in brief: as §3

| Compound | herbicidal effect on H (Echinochloa crus-galli var. crus-galli), grade 0-5 [1] | effect on crop b (directly sowed rice plant), grade 0-5 [2] | G (Setaria viridis) herbicidal effect grade (Setaria viridis) | L (Apera spica-venti) herbicidal effect grade (Apera spica-venti [3]) | d (soybean) effect on crop grade (soybean) | e (wheat) effect on crop grade (wheat) | g (rapeseed) effect on crop grade (rapeseed) | F: Digitaria ciliaris, herbicidal effect grade (Digitaria ciliaris) | I: Avena fatua, herbicidal effect grade (Avena fatua) | J: Alopecurus myosuroides, herbicidal effect grade (Alopecurus myosuroides) | K: Lolium multiflorum Lam., herbicidal effect grade (Lolium multiflorum Lam.) | L: Apera spica-venti, herbicidal effect grade (Apera spica-venti [4]) | O: Chenopodium album, herbicidal effect grade (Chenopodium album) | c: corn, effect on crop grade (corn) | b: directly sowed rice plant, effect on crop grade (rice plant) | P: Stellaria media, herbicidal effect grade (Stellaria media) |
| --- | --- | --- | --- | --- | --- | --- | --- | --- | --- | --- | --- | --- | --- | --- | --- | --- |
| CON=C(C)CC1CC(OC(=O)C2(C)CC2(Cl)Cl)=C(c2c(C)cc(C)cc2C)C1=O (stereo not drawn) [1-036] | 5 (Herbicidal ratio of 90% or more (almost completely withered)) | 5 (Herbicidal ratio of 90% or more (almost completely withered)) | 5 (Herbicidal ratio of 90% or more (almost completely withered)) | 5 (Herbicidal ratio of 90% or more (almost completely withered)) | 0 (Herbicidal ratio of 5% or lower (almost no effect)) | 3 (Herbicidal ratio of 40% or higher and lower than 70%) | 5 (Herbicidal ratio of 90% or more (almost completely withered)) | 5 (Herbicidal ratio of 90% or more (almost completely withered)) | 5 (Herbicidal ratio of 90% or more (almost completely withered)) | 5 (Herbicidal ratio of 90% or more (almost completely withered)) | 5 (Herbicidal ratio of 90% or more (almost completely withered)) | 5 (Herbicidal ratio of 90% or more (almost completely withered)) | 2 (Herbicidal ratio of 20% or higher and lower than 40%) | 1 (Herbicidal ratio of 5% or higher and lower than 20%) | 5 (Herbicidal ratio of 90% or more (almost completely withered)) |  |
| CON=CC(C)(C)C1CC(O)=C(c2c(C)cc(C)cc2C)C1=O (stereo not drawn) [1-030] | 5 (Herbicidal ratio of 90% or more (almost completely withered)) | 5 (Herbicidal ratio of 90% or more (almost completely withered)) | 2 (Herbicidal ratio of 20% or higher and lower than 40%) | 3 (Herbicidal ratio of 40% or higher and lower than 70%) | 0 (Herbicidal ratio of 5% or lower (almost no effect)) | 0 (Herbicidal ratio of 5% or lower (almost no effect)) | 0 (Herbicidal ratio of 5% or lower (almost no effect)) | 4 (Herbicidal ratio of 70% or higher and lower than 90%) | 3 (Herbicidal ratio of 40% or higher and lower than 70%) | 4 (Herbicidal ratio of 70% or higher and lower than 90%) | 5 (Herbicidal ratio of 90% or more (almost completely withered)) | 4 (Herbicidal ratio of 70% or higher and lower than 90%) | 0 (Herbicidal ratio of 5% or lower (almost no effect)) | 1 (Herbicidal ratio of 5% or higher and lower than 20%) | 5 (Herbicidal ratio of 90% or more (almost completely withered)) | 0 (Herbicidal ratio of 5% or lower (almost no effect)) |
| CON=C(C)CC1CC(OC(=O)C(C)(C)OC(C)=O)=C(c2c(C)cc(C)cc2C)C1=O (stereo not drawn) [1-034] | 5 (Herbicidal ratio of 90% or more (almost completely withered)) | 5 (Herbicidal ratio of 90% or more (almost completely withered)) | 5 (Herbicidal ratio of 90% or more (almost completely withered)) | 5 (Herbicidal ratio of 90% or more (almost completely withered)) | 0 (Herbicidal ratio of 5% or lower (almost no effect)) | 4 (Herbicidal ratio of 70% or higher and lower than 90%) | 5 (Herbicidal ratio of 90% or more (almost completely withered)) | 5 (Herbicidal ratio of 90% or more (almost completely withered)) | 5 (Herbicidal ratio of 90% or more (almost completely withered)) | 5 (Herbicidal ratio of 90% or more (almost completely withered)) | 5 (Herbicidal ratio of 90% or more (almost completely withered)) | 5 (Herbicidal ratio of 90% or more (almost completely withered)) | 5 (Herbicidal ratio of 90% or more (almost completely withered)) | 4 (Herbicidal ratio of 70% or higher and lower than 90%) | 5 (Herbicidal ratio of 90% or more (almost completely withered)) |  |
| CC(CC1CC(O)=C(c2c(C)cc(C)cc2C)C1=O)=NOCC1CC1 (stereo not drawn) [1-024] | 5 (Herbicidal ratio of 90% or more (almost completely withered)) | 5 (Herbicidal ratio of 90% or more (almost completely withered)) | 3 (Herbicidal ratio of 40% or higher and lower than 70%) | 5 (Herbicidal ratio of 90% or more (almost completely withered)) | 1 (Herbicidal ratio of 5% or higher and lower than 20%) | 4 (Herbicidal ratio of 70% or higher and lower than 90%) | 3 (Herbicidal ratio of 40% or higher and lower than 70%) | 5 (Herbicidal ratio of 90% or more (almost completely withered)) | 5 (Herbicidal ratio of 90% or more (almost completely withered)) | 5 (Herbicidal ratio of 90% or more (almost completely withered)) | 5 (Herbicidal ratio of 90% or more (almost completely withered)) | 5 (Herbicidal ratio of 90% or more (almost completely withered)) | 1 (Herbicidal ratio of 5% or higher and lower than 20%) | 5 (Herbicidal ratio of 90% or more (almost completely withered)) | 5 (Herbicidal ratio of 90% or more (almost completely withered)) | 3 (Herbicidal ratio of 40% or higher and lower than 70%) |
| CC(CC1CC(O)=C(c2c(C)cc(C)cc2C)C1=O)=NOCC(C)O (stereo not drawn) [1-027] | 5 (Herbicidal ratio of 90% or more (almost completely withered)) | 5 (Herbicidal ratio of 90% or more (almost completely withered)) | 3 (Herbicidal ratio of 40% or higher and lower than 70%) | 5 (Herbicidal ratio of 90% or more (almost completely withered)) | 0 (Herbicidal ratio of 5% or lower (almost no effect)) | 3 (Herbicidal ratio of 40% or higher and lower than 70%) | 4 (Herbicidal ratio of 70% or higher and lower than 90%) | 5 (Herbicidal ratio of 90% or more (almost completely withered)) | 5 (Herbicidal ratio of 90% or more (almost completely withered)) | 5 (Herbicidal ratio of 90% or more (almost completely withered)) | 5 (Herbicidal ratio of 90% or more (almost completely withered)) | 5 (Herbicidal ratio of 90% or more (almost completely withered)) | 1 (Herbicidal ratio of 5% or higher and lower than 20%) | 5 (Herbicidal ratio of 90% or more (almost completely withered)) | 5 (Herbicidal ratio of 90% or more (almost completely withered)) | 1 (Herbicidal ratio of 5% or higher and lower than 20%) |

Reference: patent US11000033B2, “Ketone or oxime compound, and herbicide” (NISSAN CHEMICAL CORPORATION, priority 2014, dated 2021)
